Key:
epithelial cells = assay: Epithelial cytotoxicity cell assay; assay type: cell-based; settings: AIM V medium
common wart = assay: Treatment of warts II: gelled aqueous dithionite solution applied to a wart; assay type: in vivo, person; settings: several drops of freshly prepared aqueous solution containing 2.0 % by weight of hydroxypropylmethyl cellulose; back of hand; rinsed after half an hour; wart wetted three hours from application; wooden spatula
Description: Treatment of warts II. Several drops of freshly prepared aqueous solution of sodium dithionite containing 2.0 % by weight of hydroxypropylmethyl cellulose are applied to a common wart on the back of a persons hand. After half an hour the hand is rinsed with water. Three hours from application the wart is wetted.

## O=S([O-])S(=O)[O-].[Na+].[Na+] [sodium dithionite]
Epithelial cells; highest concentration
  effect on the cells (cytotoxicity): substantial cell death
Epithelial cells; lowest concentration, 0.001 g/mL
  effect on the cells (cytotoxicity): did not affect the cells
Common wart
  removability of the wart: easily removed

Source: patent publication EP2043663B1, “TOPICAL TREATMENT OF WARTS” (ITH Immune Therapy Holdings AB, priority 2006, dated 2008)
